Reference: PubChem BioAssay (NCI)
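Protocol summary: plate cells (96-well), add compound at 5 concentrations, incubate 48 h, interpolate endpoints linearly. At the GI50, growth is halved. TGI: total growth inhibition.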

Experiments:
Experiment in all cases: DTP human tumour cell line panel, 48 h; in the data active means GI50 below about 0.43 µM; inactive means the rest
A549 NSCLC = tested on: A549 NSCLC
OVCAR-8 ovarian = tested on: OVCAR-8 ovarian
MCF7 breast = tested on: MCF7 breast
SN12C renal = tested on: SN12C renal
MOLT-4 leukemia = tested on: MOLT-4 leukemia
SR leukemia = tested on: SR leukemia
KM12 colon = tested on: KM12 colon
UACC-257 melanoma = tested on: UACC-257 melanoma
CCRF-CEM leukemia = tested on: CCRF-CEM leukemia
HL-60(TB) leukemia = tested on: HL-60(TB) leukemia
COLO 205 colon = tested on: COLO 205 colon
NCI-H460 lung = tested on: NCI-H460 lung
HOP-92 NSCLC = tested on: HOP-92 NSCLC
BT-549 breast = tested on: BT-549 breast
NCI-H226 lung = tested on: NCI-H226 lung
SK-MEL-28 melanoma = tested on: SK-MEL-28 melanoma
RPMI-8226 leukemia = tested on: RPMI-8226 leukemia
CAKI-1 renal = tested on: CAKI-1 renal
PC-3 prostate = tested on: PC-3 prostate
UO-31 renal = tested on: UO-31 renal
SF-539 CNS = tested on: SF-539 CNS
NCI/ADR-RES ovarian = tested on: NCI/ADR-RES ovarian
SF-295 CNS = tested on: SF-295 CNS
A498 renal = tested on: A498 renal
EKVX NSCLC = tested on: EKVX NSCLC
OVCAR-3 ovarian = tested on: OVCAR-3 ovarian
DU-145 prostate = tested on: DU-145 prostate
SW-620 colon = tested on: SW-620 colon
SNB-75 CNS = tested on: SNB-75 CNS
HS 578T breast = tested on: HS 578T breast
LOX IMVI melanoma = tested on: LOX IMVI melanoma
K-562 leukemia = tested on: K-562 leukemia
M14 melanoma = tested on: M14 melanoma
OVCAR-5 ovarian = tested on: OVCAR-5 ovarian
SK-MEL-2 melanoma = tested on: SK-MEL-2 melanoma
NCI-H23 lung = tested on: NCI-H23 lung
OVCAR-4 ovarian = tested on: OVCAR-4 ovarian
MDA-MB-231 breast = tested on: MDA-MB-231 breast
UACC-62 melanoma = tested on: UACC-62 melanoma
ACHN renal = tested on: ACHN renal
SF-268 CNS = tested on: SF-268 CNS
HCT-116 colon = tested on: HCT-116 colon
SNB-19 CNS = tested on: SNB-19 CNS
NCI-H522 lung = tested on: NCI-H522 lung
IGROV1 ovarian = tested on: IGROV1 ovarian
SK-MEL-5 melanoma = tested on: SK-MEL-5 melanoma
TK-10 renal = tested on: TK-10 renal
T-47D breast = tested on: T-47D breast
U251 CNS = tested on: U251 CNS
HOP-62 NSCLC = tested on: HOP-62 NSCLC
786-0 renal = tested on: 786-0 renal
HCC-2998 colon = tested on: HCC-2998 colon
HCT-15 colon = tested on: HCT-15 colon
SK-OV-3 ovarian = tested on: SK-OV-3 ovarian
MDA-MB-435 = tested on: MDA-MB-435
RXF 393 renal = tested on: RXF 393 renal
HT29 colon = tested on: HT29 colon
MALME-3M melanoma = tested on: MALME-3M melanoma

Cc1cccc(/C=C/C(=O)Nc2ncc(Cc3cccc(C)c3)s2)c1
1.97 µM: TGI (HL-60(TB) leukemia)
> 81.1 µM: TGI (SK-MEL-5 melanoma)
3 µM: TGI (COLO 205 colon)
inactive: GI50 (A549 NSCLC) 1.02 µM | GI50 (OVCAR-8 ovarian) 1.36 µM | GI50 (MCF7 breast) 0.82 µM | GI50 (SN12C renal) 1.68 µM | GI50 (MOLT-4 leukemia) 0.71 µM | GI50 (UACC-257 melanoma) 1.59 µM | GI50 (CCRF-CEM leukemia) 0.884 µM | GI50 (HL-60(TB) leukemia) 0.579 µM | GI50 (COLO 205 colon) 0.766 µM | GI50 (NCI-H460 lung) 0.545 µM | GI50 (HOP-92 NSCLC) 1.25 µM | GI50 (BT-549 breast) 1.29 µM | GI50 (NCI-H226 lung) 1.28 µM | GI50 (SK-MEL-28 melanoma) 1.93 µM | GI50 (RPMI-8226 leukemia) 1.14 µM | GI50 (CAKI-1 renal) 0.518 µM | GI50 (PC-3 prostate) 0.875 µM | GI50 (UO-31 renal) 0.618 µM | GI50 (SF-539 CNS) 0.863 µM | GI50 (NCI/ADR-RES ovarian) 0.869 µM | GI50 (A498 renal) > 27.7 µM | GI50 (EKVX NSCLC) 1.22 µM | GI50 (OVCAR-3 ovarian) 1.05 µM | GI50 (DU-145 prostate) 0.876 µM | GI50 (SW-620 colon) 1.13 µM | GI50 (SNB-75 CNS) 0.903 µM | GI50 (HS 578T breast) 1.04 µM | GI50 (LOX IMVI melanoma) 0.841 µM | GI50 (M14 melanoma) 0.568 µM | GI50 (OVCAR-5 ovarian) 1.44 µM | GI50 (SK-MEL-2 melanoma) 0.627 µM | GI50 (NCI-H23 lung) 6.62 µM | GI50 (OVCAR-4 ovarian) 1.39 µM | GI50 (MDA-MB-231 breast) 2.92 µM | GI50 (ACHN renal) 1.06 µM | GI50 (SF-268 CNS) 2.54 µM | GI50 (HCT-116 colon) 1.1 µM | GI50 (SNB-19 CNS) 1.4 µM | GI50 (NCI-H522 lung) 0.599 µM | GI50 (IGROV1 ovarian) 1.67 µM | GI50 (SK-MEL-5 melanoma) 1.23 µM | GI50 (TK-10 renal) > 25.6 µM | GI50 (T-47D breast) 0.575 µM | GI50 (U251 CNS) 1.11 µM | GI50 (HOP-62 NSCLC) 0.633 µM | GI50 (786-0 renal) 1.19 µM | GI50 (HCC-2998 colon) 1.68 µM | GI50 (HCT-15 colon) 0.585 µM | GI50 (SK-OV-3 ovarian) 1.67 µM | GI50 (RXF 393 renal) 0.91 µM | GI50 (HT29 colon) 0.739 µM | GI50 (MALME-3M melanoma) 1.3 µM
8.55 µM: TGI (OVCAR-3 ovarian)
> 100 µM: TGI (A549 NSCLC) | TGI (OVCAR-8 ovarian) | TGI (MCF7 breast) | TGI (SN12C renal) | TGI (MOLT-4 leukemia) | TGI (SR leukemia) | TGI (UACC-257 melanoma) | TGI (CCRF-CEM leukemia) | TGI (NCI-H460 lung) | TGI (HOP-92 NSCLC) | TGI (BT-549 breast) | TGI (NCI-H226 lung) | TGI (SK-MEL-28 melanoma) | TGI (RPMI-8226 leukemia) | TGI (CAKI-1 renal) | TGI (PC-3 prostate) | TGI (UO-31 renal) | TGI (NCI/ADR-RES ovarian) | TGI (A498 renal) | TGI (EKVX NSCLC) | TGI (DU-145 prostate) | TGI (SW-620 colon) | TGI (HS 578T breast) | TGI (LOX IMVI melanoma) | TGI (K-562 leukemia) | TGI (OVCAR-5 ovarian) | TGI (NCI-H23 lung) | TGI (OVCAR-4 ovarian) | TGI (MDA-MB-231 breast) | TGI (UACC-62 melanoma) | TGI (ACHN renal) | TGI (SF-268 CNS) | TGI (HCT-116 colon) | TGI (SNB-19 CNS) | TGI (IGROV1 ovarian) | TGI (TK-10 renal) | TGI (T-47D breast) | TGI (U251 CNS) | TGI (HOP-62 NSCLC) | TGI (786-0 renal) | TGI (HCC-2998 colon) | TGI (HCT-15 colon) | TGI (SK-OV-3 ovarian) | TGI (MALME-3M melanoma)
2.46 µM: TGI (SF-295 CNS)
5.95 µM: TGI (RXF 393 renal)
> 20.5 µM: TGI (SNB-75 CNS)
active: GI50 (SR leukemia) 0.179 µM | GI50 (KM12 colon) 0.339 µM | GI50 (SF-295 CNS) 0.329 µM | GI50 (K-562 leukemia) 0.117 µM | GI50 (UACC-62 melanoma) 0.144 µM | GI50 (MDA-MB-435) 0.303 µM
1.89 µM: TGI (M14 melanoma)
4.75 µM: TGI (SK-MEL-2 melanoma)
> 32.5 µM: TGI (SF-539 CNS)
2.08 µM: TGI (NCI-H522 lung)
2.58 µM: TGI (HT29 colon)
1.14 µM: TGI (MDA-MB-435)
> 75 µM: TGI (KM12 colon)
